Measurements from US4175125A, “Method for treating methicillin resistant staphylococcus aureus” (Eli Lilly and Company, priority 1978, dated 1979).
Values after ≈ are worked out from the molar mass of the structure shown.

Columns and labels:
[1] = tested on: Staphylococcus aureus cultures; assay: Agar dilution susceptibility test, phenylthioacetyl cephalosporins vs methicillin resistant S. aureus (Example 9); assay type: cell-based; details: Staphylococcus aureus, read-out: MIC
Description: This example compares the antibiotic activities of three known compounds, methicillin, cephalothin, and cephaloridine, with three compounds from the above examples, in terms of minimum inhibitory concentration (MIC) values in microgram/milliliter units against various isolates of Staphylococcus aureus cultures. The culture numbers and the procedures used to obtain the reported data are disclosed by W. E. Wick and D. A. Preston in their article "Heterogeneous Methicillin-Resistant Staphylococcus Aureus" which appeared in Progress in Antimicrobial And Anticancer Chemotherapy, Proceedings of the 6th International Congress of Chemotherapy, Volume, 1, U. of Tokyo Press, Tokyo, (1970). In these agardilution susceptibility tests, the inocula were diluted to 10^3 bacteria per spot. Cultures 3055 (benzylpenicillin sensitive) and H232 (benzylpenicillin-resistant) are controls. The remaining cultures are methicillin-resistant, and, except for 3136, are clinical isolates. Culture 3136 is a 4th transfer laboratory selected mutant.

[2] = tested on: Staphylococcus aureus cultures; assay: Broth dilution MIC in trypticase soy broth, low and high NaCl (Example 10); assay type: cell-based; details: for MIC: Staphylococcus aureus, TSB, read-out: MIC
Method: This example compares the antibiotic activities of methicillin, cephalothin and cephaloridine with the compounds of Examples 1, 2 and 3, in broth dilution tests. The MIC values, in μg/ml., are against the same Staphylococcus aureus cultures described in Example 9, except that in this example the cultures were grown in trypticase soy broth (TSB). Growing the cultures in two broth cultures, one having a low (0.5 percent) sodium chloride content and one having a high (5.0 percent) sodium chloride content is said to assist in identifying the methicillin-resistant cultures from those which are not methicillin-resistant. […] See Chabbert, Y. A., 1967 Postgrad. Med. J., 43 (suppl); 40-46. One expects that similar changes in MIC values for this type of culture to other β-lactam antibiotics, e.g., various penicillins and cephalosporins, to have similar implications. […] That is, methicillin-resistant S.aureus cultures are susceptible to the cephalosporin antibiotics used in this invention.

[3] = culture 3130, table part marked b
[4] = culture 3130, table part marked c
[5] = culture 3131, table part marked b
[6] = culture 3131, table part marked c
[7] = culture 3134, table part marked b
[8] = culture 3134, table part marked c
[9] = culture 3135, table part marked b
[10] = culture 3135, table part marked c
[11] = culture 3136, table part marked b
[12] = culture 3136, table part marked c
[13] = culture 3137, table part marked b
[14] = culture 3137, table part marked c
[15] = culture 3138, table part marked b
[16] = culture 3138, table part marked c
[17] = culture 3139, table part marked b
[18] = culture 3139, table part marked c
[19] = culture (Seattle) 966, table part marked b
[20] = culture (Seattle) 966, table part marked c
[21] = culture S61, table part marked b
[22] = culture S61, table part marked c

MIC ([1]; culture 3055 (control, benzylpenicillin sensitive), table part marked b): 1 µg/mL (≈ 2.63 µM)
MIC ([1]; culture 3055 (control, benzylpenicillin sensitive), table part marked c): 2 µg/mL (≈ 5.26 µM)
MIC [1, 3]: 8 µg/mL (≈ 21 µM)
MIC [1, 4]: 128 µg/mL (≈ 336 µM)
MIC [1, 5]: 8 µg/mL (≈ 21 µM)
MIC [1, 6]: 128 µg/mL (≈ 336 µM)
MIC ([1]; culture 3132, table part marked b): 8 µg/mL (≈ 21 µM)
MIC ([1]; culture 3132, table part marked c): 32 µg/mL (≈ 84.1 µM)
MIC ([1]; culture 3133, table part marked b): 8 µg/mL (≈ 21 µM)
MIC ([1]; culture 3133, table part marked c): 128 µg/mL (≈ 336 µM)
MIC [1, 7]: 16 µg/mL (≈ 42.1 µM)
MIC [1, 8]: 64 µg/mL (≈ 168 µM)
MIC [1, 9]: 8 µg/mL (≈ 21 µM)
MIC [1, 10]: 64 µg/mL (≈ 168 µM)
MIC [1, 11]: 8 µg/mL (≈ 21 µM)
MIC [1, 12]: 64 µg/mL (≈ 168 µM)
MIC [1, 13]: > 128 µg/mL
MIC [1, 14]: > 128 µg/mL
MIC [1, 15]: 16 µg/mL (≈ 42.1 µM)
MIC [1, 16]: > 128 µg/mL
MIC [1, 17]: 8 µg/mL (≈ 21 µM)
MIC [1, 18]: > 128 µg/mL
MIC [1, 19]: 8 µg/mL (≈ 21 µM)
MIC [1, 20]: 64 µg/mL (≈ 168 µM)
MIC ([1]; culture H232 (control, benzylpenicillin-resistant), table part marked b): 2 µg/mL (≈ 5.26 µM)
MIC ([1]; culture H232 (control, benzylpenicillin-resistant), table part marked c): 2 µg/mL (≈ 5.26 µM)
MIC ([1]; culture Kavarmark 1138501, table part marked b): 8 µg/mL (≈ 21 µM)
MIC ([1]; culture Kavarmark 1138501, table part marked c): 128 µg/mL (≈ 336 µM)
MIC [1, 21]: 8 µg/mL (≈ 21 µM)
MIC [1, 22]: 128 µg/mL (≈ 336 µM)
difference in MIC values in low versus high salt TSB cultures ([2]; 0.5 percent vs 5.0 percent NaCl, methicillin-resistant S. aureus): wide disparity in MIC values
MIC ([2]; culture 3055 (control), table part marked b): 2 µg/mL (≈ 5.26 µM)
MIC ([2]; culture 3055 (control), table part marked c): 2 µg/mL (≈ 5.26 µM)
MIC [2, 3]: 16 µg/mL (≈ 42.1 µM)
MIC [2, 4]: 64 µg/mL (≈ 168 µM)
MIC [2, 5]: 16 µg/mL (≈ 42.1 µM)
MIC [2, 6]: 128 µg/mL (≈ 336 µM)
MIC ([2]; culture 3132 (first column so headed), table part marked b): 32 µg/mL (≈ 84.1 µM)
MIC ([2]; culture 3132 (first column so headed), table part marked c): 64 µg/mL (≈ 168 µM)
MIC ([2]; culture 3132 (second column so headed), table part marked b): 8 µg/mL (≈ 21 µM)
MIC ([2]; culture 3132 (second column so headed), table part marked c): 128 µg/mL (≈ 336 µM)
MIC [2, 7]: 32 µg/mL (≈ 84.1 µM)
MIC [2, 8]: 64 µg/mL (≈ 168 µM)
MIC [2, 9]: 32 µg/mL (≈ 84.1 µM)
MIC [2, 10]: 64 µg/mL (≈ 168 µM)
MIC [2, 11]: 32 µg/mL (≈ 84.1 µM)
MIC [2, 12]: 128 µg/mL (≈ 336 µM)
MIC [2, 13]: > 128 µg/mL
MIC [2, 14]: > 128 µg/mL
MIC [2, 15]: 128 µg/mL (≈ 336 µM)
MIC [2, 16]: 128 µg/mL (≈ 336 µM)
MIC [2, 17]: 16 µg/mL (≈ 42.1 µM)
MIC [2, 18]: > 128 µg/mL
MIC [2, 19]: 8 µg/mL (≈ 21 µM)
MIC [2, 20]: 64 µg/mL (≈ 168 µM)
MIC ([2]; culture H232 (control), table part marked b): 4 µg/mL (≈ 10.5 µM)
MIC ([2]; culture H232 (control), table part marked c): 4 µg/mL (≈ 10.5 µM)
MIC ([2]; culture Kavarnick 1138501, table part marked b): 32 µg/mL (≈ 84.1 µM)
MIC ([2]; culture Kavarnick 1138501, table part marked c): 128 µg/mL (≈ 336 µM)
MIC [2, 21]: 16 µg/mL (≈ 42.1 µM)
MIC [2, 22]: 64 µg/mL (≈ 168 µM)
MIC ([2]; culture S, table part marked b): 16 µg/mL (≈ 42.1 µM)
MIC ([2]; culture S, table part marked c): 16 µg/mL (≈ 42.1 µM)
Compound: COc1cccc(OC)c1C(=O)N[C@@H]1C(=O)N2[C@@H]1SC(C)(C)[C@@H]2C(=O)O [Methicillin, methicillin]
